According to PubChem BioAssay (NCI):
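GI50 = concentration required for 50% inhibition of growth. TGI denotes the concentration required for complete inhibition of growth.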

Tests used:
Assay in all cases: NCI-60 cell line screen, 384-well format
[1] = tested on: HL-60(TB) leukemia
[2] = tested on: MDA-MB-231 breast
[3] = tested on: NCI-H322M lung
[4] = tested on: MOLT-4 leukemia
[5] = tested on: MDA-MB-435 melanoma
[6] = tested on: SK-MEL-2 melanoma
[7] = tested on: SN12C renal
[8] = tested on: A549 NSCLC
[9] = tested on: U251 glioblastoma
[10] = tested on: CAKI-1 renal
[11] = tested on: HS 578T breast
[12] = tested on: OVCAR-4 ovarian
[13] = tested on: UACC-257 melanoma
[14] = tested on: SR leukemia
[15] = tested on: NCI-H522 lung
[16] = tested on: SK-MEL-28 melanoma
[17] = tested on: COLO 205 colon
[18] = tested on: K-562 leukemia
[19] = tested on: RXF 393 renal
[20] = tested on: SNB-75 CNS
[21] = tested on: SF-295 CNS
[22] = tested on: NCI-H226 lung
[23] = tested on: HCT-116 colon
[24] = tested on: TK-10 renal
[25] = tested on: NCI-H23 lung
[26] = tested on: KM12 colon
[27] = tested on: HT29 colon
[28] = tested on: EKVX NSCLC
[29] = tested on: T-47D breast
[30] = tested on: OVCAR-3 ovarian
[31] = tested on: MCF7 breast
[32] = tested on: DU-145 prostate
[33] = tested on: 786-0 renal
[34] = tested on: PC-3 prostate
[35] = tested on: A498 renal
[36] = tested on: OVCAR-5 ovarian
[37] = tested on: SF-268 CNS
[38] = tested on: SF-539 CNS
[39] = tested on: UACC-62 melanoma
[40] = tested on: SK-MEL-5 melanoma
[41] = tested on: SNB-19 CNS
[42] = tested on: NCI-H460 NSCLC
[43] = tested on: MDA-MB-468 breast
[44] = tested on: SW-620 colon
[45] = tested on: ACHN renal
[46] = tested on: HOP-92 NSCLC
[47] = tested on: SK-OV-3 ovarian
[48] = tested on: HCT-15 colon
[49] = tested on: OVCAR-8 ovarian
[50] = tested on: BT-549 breast
[51] = tested on: HOP-62 NSCLC
[52] = tested on: UO-31 renal
[53] = tested on: M14 melanoma
[54] = tested on: IGROV1 ovarian
[55] = tested on: MALME-3M melanoma

With `C[C@@H]1Cc2c([nH]c3ccccc23)[C@@H](c2c(F)cc(NC3CN(CCCF)C3)cc2F)N1CC(F)(F)CO` the GI50 [1] was 1390 nM, the TGI [1] was 2690 nM and the GI50 [2] was 3540 nM. It also gave a TGI [2] of 12100 nM, a GI50 [3] of 2810 nM and a TGI [3] of 6540 nM. The GI50 [4] was 1390 nM, the TGI [4] was 2680 nM and the GI50 [5] was 1730 nM. It also gave a TGI [5] of 3110 nM, a GI50 [6] of 1630 nM and a TGI [6] of 2980 nM. The GI50 [7] was 4890 nM, the TGI [7] was 16500 nM and the GI50 [8] was 4100 nM. The TGI [8] was 14500 nM, the GI50 [9] was 1770 nM and the TGI [9] was 3320 nM. It also gave a GI50 [10] of 1660 nM, a TGI [10] of 3250 nM and a GI50 [11] of 1410 nM. For the same molecule, the TGI [11] was 2730 nM, the GI50 [12] was 1320 nM and the TGI [12] was 4650 nM. For the same molecule, the GI50 [13] was 1560 nM, the TGI [13] was 2910 nM and the GI50 [14] was 1670 nM. For the same molecule, the TGI [14] was 3030 nM, the GI50 [15] was 2360 nM and the TGI [15] was 4630 nM. For the same molecule, the GI50 [16] was 1600 nM, the TGI [16] was 2960 nM and the GI50 [17] was 2070 nM. It also gave a TGI [17] of 3560 nM, a GI50 [18] of 1590 nM and a TGI [18] of 2950 nM. For the same molecule, the GI50 [19] was 1340 nM, the TGI [19] was 2880 nM and the GI50 [20] was 1430 nM. It also gave a TGI [20] of 3220 nM, a GI50 [21] of 1970 nM and a TGI [21] of 3680 nM. It also gave a GI50 [22] of 2350 nM, a TGI [22] of 7780 nM and a GI50 [23] of 1780 nM. It also gave a TGI [23] of 3210 nM, a GI50 [24] of 1750 nM and a TGI [24] of 3260 nM. For the same molecule, the GI50 [25] was 5520 nM, the TGI [25] was 16900 nM and the GI50 [26] was 1730 nM. It also gave a TGI [26] of 3160 nM, a GI50 [27] of 1710 nM and a TGI [27] of 3130 nM. For the same molecule, the GI50 [28] was 1870 nM, the TGI [28] was 6390 nM and the GI50 [29] was 1300 nM. For the same molecule, the TGI [29] was 2690 nM, the GI50 [30] was 1880 nM and the TGI [30] was 4050 nM. For the same molecule, the TGI [31] was 1410 nM, the GI50 [32] was 2500 nM and the TGI [32] was 6500 nM. For the same molecule, the GI50 [33] was 1820 nM, the TGI [33] was 3230 nM and the GI50 [34] was 1840 nM. The TGI [34] was 3880 nM, the GI50 [35] was 1450 nM and the TGI [35] was 2820 nM. The GI50 [36] was 4090 nM, the TGI [36] was 15400 nM and the GI50 [37] was 1950 nM. The TGI [37] was 4110 nM, the GI50 [38] was 1640 nM and the TGI [38] was 3250 nM. It also gave a GI50 [39] of 1580 nM, a TGI [39] of 2950 nM and a GI50 [40] of 1490 nM. The TGI [40] was 2820 nM, the GI50 [41] was 10600 nM and the TGI [41] was 22400 nM. The GI50 [42] was 1470 nM, the TGI [42] was 2860 nM and the GI50 [43] was 1330 nM. For the same molecule, the TGI [43] was 2750 nM, the GI50 [44] was 1710 nM and the TGI [44] was 3120 nM. The GI50 [45] was 1710 nM, the TGI [45] was 3160 nM and the GI50 [46] was 1790 nM. It also gave a TGI [46] of 3680 nM, a GI50 [47] of 1830 nM and a TGI [47] of 3910 nM. It also gave a GI50 [48] of 1950 nM, a TGI [48] of 3740 nM and a GI50 [49] of 2700 nM. It also gave a TGI [49] of 8090 nM, a GI50 [50] of 1440 nM and a TGI [50] of 2850 nM. For the same molecule, the GI50 [51] was 2370 nM, the TGI [51] was 6240 nM and the GI50 [52] was 1780 nM. It also gave a TGI [52] of 3810 nM, a GI50 [53] of 1780 nM and a TGI [53] of 3170 nM. The GI50 [54] was 1840 nM, the TGI [54] was 4330 nM and the GI50 [55] was 1550 nM. For the same molecule, the TGI [55] was 2890 nM.
